From US20240025884A1 (Dong-A ST Co., Ltd., priority 2022, published 2024)

Target: GCN2 (Homo sapiens (Human), UniProt Q9P2K8)
Experiment: GCN2 Biochemical Assay (TR-FRET, GFP-eIF2S1 substrate phosphorylation)
Conditions: read-out: IC50 (GCN2 Inhibitory Activity)
Summary of the method: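 TR-FRET readout (Ex 340, Em 490/520 nm) after 2–3 h with Tb-labelled phospho-eIF2S1 antibody in stop mix, following a 70 min room-temperature kinase step. Reaction: in-house GCN2, GFP-eIF2S1, ATP, tRNA in Tris pH 7.5 (2× stocks 1.6 nM, 50 nM, 0.2 mM); compounds tested at 10 concentrations, with a phospho-substrate artifact counter-plate.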

Sequence of GCN2 (Q9P2K8 whole entry): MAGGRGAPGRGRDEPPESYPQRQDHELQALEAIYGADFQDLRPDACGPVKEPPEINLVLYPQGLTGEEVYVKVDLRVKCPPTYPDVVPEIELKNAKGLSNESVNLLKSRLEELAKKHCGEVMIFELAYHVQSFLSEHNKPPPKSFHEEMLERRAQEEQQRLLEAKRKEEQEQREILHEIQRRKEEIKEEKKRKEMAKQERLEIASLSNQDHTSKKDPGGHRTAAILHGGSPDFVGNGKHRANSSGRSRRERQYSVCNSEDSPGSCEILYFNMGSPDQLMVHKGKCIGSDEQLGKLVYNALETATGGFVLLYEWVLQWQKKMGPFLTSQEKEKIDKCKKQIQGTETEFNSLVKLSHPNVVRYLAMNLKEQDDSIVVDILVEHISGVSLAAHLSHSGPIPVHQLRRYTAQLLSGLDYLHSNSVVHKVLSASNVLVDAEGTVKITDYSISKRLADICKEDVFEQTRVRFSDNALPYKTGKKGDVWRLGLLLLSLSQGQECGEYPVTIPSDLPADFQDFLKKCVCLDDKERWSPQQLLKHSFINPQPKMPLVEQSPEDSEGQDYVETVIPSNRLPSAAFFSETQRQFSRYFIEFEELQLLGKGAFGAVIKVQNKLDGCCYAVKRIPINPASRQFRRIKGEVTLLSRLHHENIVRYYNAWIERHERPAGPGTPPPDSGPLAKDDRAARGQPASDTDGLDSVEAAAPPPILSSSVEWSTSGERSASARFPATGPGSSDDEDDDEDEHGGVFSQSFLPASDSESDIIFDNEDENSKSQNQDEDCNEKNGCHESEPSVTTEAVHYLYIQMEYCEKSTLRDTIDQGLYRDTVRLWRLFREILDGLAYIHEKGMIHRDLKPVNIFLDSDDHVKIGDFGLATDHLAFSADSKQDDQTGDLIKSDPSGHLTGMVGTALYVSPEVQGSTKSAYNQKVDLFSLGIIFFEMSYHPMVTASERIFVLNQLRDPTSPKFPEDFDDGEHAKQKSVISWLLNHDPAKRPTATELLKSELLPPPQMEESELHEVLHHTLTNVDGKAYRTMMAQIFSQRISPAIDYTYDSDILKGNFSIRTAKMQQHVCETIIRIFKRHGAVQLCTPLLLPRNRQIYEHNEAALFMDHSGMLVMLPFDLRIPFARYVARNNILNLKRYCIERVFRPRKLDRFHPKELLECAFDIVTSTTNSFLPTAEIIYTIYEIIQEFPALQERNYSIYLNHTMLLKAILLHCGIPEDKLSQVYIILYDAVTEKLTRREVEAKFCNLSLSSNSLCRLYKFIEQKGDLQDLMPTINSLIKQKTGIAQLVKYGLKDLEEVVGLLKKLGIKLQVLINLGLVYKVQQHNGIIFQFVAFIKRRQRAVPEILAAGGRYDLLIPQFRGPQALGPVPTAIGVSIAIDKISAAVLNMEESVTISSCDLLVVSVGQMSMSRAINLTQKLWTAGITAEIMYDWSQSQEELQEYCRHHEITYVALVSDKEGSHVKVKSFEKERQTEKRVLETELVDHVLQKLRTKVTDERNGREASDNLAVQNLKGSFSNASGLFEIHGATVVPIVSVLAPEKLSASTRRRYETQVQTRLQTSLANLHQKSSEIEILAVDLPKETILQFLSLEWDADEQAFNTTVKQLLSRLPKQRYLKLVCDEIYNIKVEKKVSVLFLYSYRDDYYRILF

Row | SMILES | IC50
1 | CCN(CC)C(=O)/C=C/c1cccc2c1CN(c1cccc3c(-c4nc(Nc5cc(C)n(C)n5)ncc4C)c[nH]c13)C2=O [Example 368, (E)-3-(2-(3-(2-((1,5-dimethyl-1H-pyrazol-3-yl)amino)-5-methylpyrimidin-4-yl)-1H-indol-7-yl)-1-oxoisoindolin-4-yl)-N,N-diethylacrylamide] | < 10 nM
2 | CCCCN(CCCC)C(=O)/C=C/c1cccc2c1CN(c1cccc3c(-c4nc(Nc5cc(C)n(C)n5)ncc4C)c[nH]c13)C2=O [Example 369, (E)-N,N-dibutyl-3-(2-(3-(2-((1,5-dimethyl-1H-pyrazol-3-yl)amino)-5-methylpyrimidin-4-yl)-1H-indol-7-yl)-1-oxoisoindolin-4-yl)acrylamide] | 10 to 100 nM
3 | Cc1cnc(Nc2cc(C)n(C)n2)nc1-c1c[nH]c2c(N3Cc4c(/C=C/C(=O)NC(C)(C)C)cccc4C3=O)cccc12 [Example 371, (E)-N-(tert-butyl)-3-(2-(3-(2-((1,5-dimethyl-1H-pyrazol-3-yl)amino)-5-methylpyrimidin-4-yl)-1H-indol-7-yl)-1-oxoisoindolin-4-yl)acrylamide] | < 10 nM
4 | Cc1cnc(Nc2cc(C)n(C)n2)nc1-c1c[nH]c2c(N3Cc4c(/C=C/C(=O)NCCO)cccc4C3=O)cccc12 [Example 372, (E)-3-(2-(3-(2-((1,5-dimethyl-1H-pyrazol-3-yl)amino)-5-methylpyrimidin-4-yl)-1H-indol-7-yl)-1-oxoisoindolin-4-yl)-N-(2-hydroxyethyl)acrylamide] | < 10 nM
5 | CCCNC(=O)/C=C/c1cccc2c1CN(c1cccc3c(-c4nc(Nc5cc(C)n(C)n5)ncc4C)c[nH]c13)C2=O [Example 373, (E)-3-(2-(3-(2-((1,5-dimethyl-1H-pyrazol-3-yl)amino)-5-methylpyrimidin-4-yl)-1H-indol-7-yl)-1-oxoisoindolin-4-yl)-N-propylacrylamide] | < 10 nM
6 | COCCNC(=O)/C=C/c1cccc2c1CN(c1cccc3c(-c4nc(Nc5cc(C)n(C)n5)ncc4C)c[nH]c13)C2=O [Example 374, (E)-3-(2-(3-(2-((1,5-dimethyl-1H-pyrazol-3-yl)amino)-5-methylpyrimidin-4-yl)-1H-indol-7-yl)-1-oxoisoindolin-4-yl)-N-(2-methoxyethyl)acrylamide] | < 10 nM
7 | Cc1cnc(Nc2cc(C)n(C)n2)nc1-c1c[nH]c2c(N3Cc4c(/C=C/CO)cccc4C3=O)cccc12 [Example 375, (E)-2-(3-(2-((1,5-dimethyl-1H-pyrazol-3-yl)amino)-5-methylpyrimidin-4-yl)-1H-indol-7-yl)-4-(3-hydroxyprop-1-en-1-yl)isoindolin-1-one] | < 10 nM
8 | CCNC(=O)/C(C)=C/c1cccc2c1CN(c1cccc3c(-c4nc(Nc5cc(C)n(C)n5)ncc4C)c[nH]c13)C2=O [Example 376, (E)-3-(2-(3-(2-((1,5-dimethyl-1H-pyrazol-3-yl)amino)-5-methylpyrimidin-4-yl)-1H-indol-7-yl)-1-oxoisoindolin-4-yl)-N-ethyl-2-methylacrylamide] | < 10 nM
9 | Cc1cnc(Nc2cc(C)n(C)n2)nc1-c1c[nH]c2c(N3Cc4c(cccc4-c4ccccc4)C3=O)cccc12 [Example 377, 2-(3-(2-((1,5-dimethyl-1H-pyrazol-3-yl)amino)-5-methylpyrimidin-4-yl)-1H-indol-7-yl)-4-phenylisoindolin-1-one] | < 10 nM
10 | Cc1cnc(Nc2cc(C)n(C)n2)nc1-c1c[nH]c2c(N3Cc4cc(-c5ccccc5)ccc4C3=O)cccc12 [Example 378, 2-(3-(2-((1,5-dimethyl-1H-pyrazol-3-yl)amino)-5-methylpyrimidin-4-yl)-1H-indol-7-yl)-5-phenylisoindolin-1-one] | > 1000 nM
11 | Cc1cnc(Nc2cc(C)n(C)n2)nc1-c1c[nH]c2c(N3Cc4ccc(-c5ccccc5)cc4C3=O)cccc12 [Example 379, 2-(3-(2-((1,5-dimethyl-1H-pyrazol-3-yl)amino)-5-methylpyrimidin-4-yl)-1H-indol-7-yl)-6-phenylisoindolin-1-one] | 100 to 1000 nM
12 | Cc1cnc(Nc2cc(C)n(C)n2)nc1-c1c[nH]c2c(N3Cc4ccc(-c5ccncc5)cc4C3=O)cccc12 [Example 380, 2-(3-(2-((1,5-dimethyl-1H-pyrazol-3-yl)amino)-5-methylpyrimidin-4-yl)-1H-indol-7-yl)-6-(pyridin-4-yl)isoindolin-1-one] | < 10 nM
13 | Cc1cnc(Nc2cc(C)n(C)n2)nc1-c1c[nH]c2c(N3Cc4ccc(C5=CCNCC5)cc4C3=O)cccc12 [Example 381, 2-(3-(2-((1,5-dimethyl-1H-pyrazol-3-yl)amino)-5-methylpyrimidin-4-yl)-1H-indol-7-yl)-6-(1,2,3,6-tetrahydropyridin-4-yl)isoindolin-1-one] | < 10 nM
14 | Cc1cnc(Nc2cc(C)n(C)n2)nc1-c1c[nH]c2c(N3Cc4cccc(-c5ccccc5)c4C3=O)cccc12 [Example 382, 2-(3-(2-((1,5-dimethyl-1H-pyrazol-3-yl)amino)-5-methylpyrimidin-4-yl)-1H-indol-7-yl)-7-phenylisoindolin-1-one] | 10 to 100 nM
15 | Cc1cnc(Nc2cc(C)n(C)n2)nc1-c1c[nH]c2c(N3Cc4cccc(-c5ccncc5)c4C3=O)cccc12 [Example 383, 2-(3-(2-((1,5-dimethyl-1H-pyrazol-3-yl)amino)-5-methylpyrimidin-4-yl)-1H-indol-7-yl)-7-(pyridin-4-yl)isoindolin-1-one] | < 10 nM
16 | Cc1cnc(Nc2cc(C)n(C)n2)nc1-c1c[nH]c2c(N3Cc4cccc(C5=CCCCC5)c4C3=O)cccc12 [Example 384, 7-(cyclohex-1-en-1-yl)-2-(3-(2-((1,5-dimethyl-1H-pyrazol-3-yl)amino)-5-methylpyrimidin-4-yl)-1H-indol-7-yl)isoindolin-1-one] | 100 to 1000 nM

Results, then the molecule that gave them:

Row | IC50 | SMILES
17 | 10 to 100 nM | Cc1cnc(Nc2cc(C)n(C)n2)nc1-c1c[nH]c2c(N3Cc4cccc(C5=CCOCC5)c4C3=O)cccc12 [Example 385, 7-(3,6-dihydro-2H-pyran-4-yl)-2-(3-(2-((1,5-dimethyl-1H-pyrazol-3-yl)amino)-5-methylpyrimidin-4-yl)-1H-indol-7-yl)isoindolin-1-one]
18 | 10 to 100 nM | Cc1cnc(Nc2cc(C)n(C)n2)nc1-c1c[nH]c2c(N3Cc4cccc(-c5cn[nH]c5)c4C3=O)cccc12 [Example 386, 2-(3-(2-((1,5-dimethyl-1H-pyrazol-3-yl)amino)-5-methylpyrimidin-4-yl)-1H-indol-7-yl)-7-(1H-pyrazol-4-yl)isoindolin-1-one]
19 | < 10 nM | Cc1cnc(Nc2cc(C)n(C)n2)nc1-c1c[nH]c2c(N3Cc4c(cccc4-c4ccncc4)C3=O)cccc12 [Example 387, 2-(3-(2-((1,5-dimethyl-1H-pyrazol-3-yl)amino)-5-methylpyrimidin-4-yl)-1H-indol-7-yl)-4-(pyridin-4-yl)isoindolin-1-one]
20 | < 10 nM | Cc1cnc(Nc2cc(C)n(C)n2)nc1-c1c[nH]c2c(N3Cc4c(cccc4-c4cccnc4)C3=O)cccc12 [Example 388, 2-(3-(2-((1,5-dimethyl-1H-pyrazol-3-yl)amino)-5-methylpyrimidin-4-yl)-1H-indol-7-yl)-4-(pyridin-3-yl)isoindolin-1-one]
21 | < 10 nM | Cc1cnc(Nc2cc(C)n(C)n2)nc1-c1c[nH]c2c(N3Cc4c(cccc4-c4cnn(C)c4)C3=O)cccc12 [Example 389, 2-(3-(2-((1,5-dimethyl-1H-pyrazol-3-yl)amino)-5-methylpyrimidin-4-yl)-1H-indol-7-yl)-4-(i-methyl-1H-pyrazol-4-yl)isoindolin-1-one]
22 | < 10 nM | Cc1cnc(Nc2cc(C)n(C)n2)nc1-c1c[nH]c2c(N3Cc4c(cccc4-c4cn[nH]c4)C3=O)cccc12 [Example 390, 2-(3-(2-((1,5-dimethyl-1H-pyrazol-3-yl)amino)-5-methylpyrimidin-4-yl)-1H-indol-7-yl)-4-(1H-pyrazol-4-yl)isoindolin-1-one]
23 | 10 to 100 nM | Cc1cnc(Nc2cc(C)n(C)n2)nc1-c1c[nH]c2c(N3Cc4c(cccc4C4=CCCCC4)C3=O)cccc12 [Example 391, 4-(cyclohex-1-en-1-yl)-2-(3-(2-((1,5-dimethyl-1H-pyrazol-3-yl)amino)-5-methylpyrimidin-4-yl)-1H-indol-7-yl)isoindolin-t-one]
24 | < 10 nM | Cc1cnc(Nc2cc(C)n(C)n2)nc1-c1c[nH]c2c(N3Cc4c(cccc4C4=CCOCC4)C3=O)cccc12 [Example 392, 4-(3,6-dihydro-2H-pyran-4-yl)-2-(3-(2-((1,5-dimethyl-1H-pyrazol-3-yl)amino)-5-methylpyrimidin-4-yl)-1H-indol-7-yl)isoindolin-1-one]
25 | < 10 nM | Cc1cnc(Nc2cc(C)n(C)n2)nc1-c1c[nH]c2c(N3Cc4c(cccc4-c4ccoc4)C3=O)cccc12 [Example 393, 2-(3-(2-((1,5-dimethyl-1H-pyrazol-3-yl)amino)-5-methylpyrimidin-4-yl)-1H-indol-7-yl)-4-(furan-3-yl)isoindolin-1-one]
26 | < 10 nM | Cc1cnc(Nc2cc(C)n(C)n2)nc1-c1c[nH]c2c(N3Cc4c(cccc4C4=CCNCC4)C3=O)cccc12 [Example 394, 2-(3-(2-((1,5-dimethyl-1H-pyrazol-3-yl)amino)-5-methylpyrimidin-4-yl)-1H-indol-7-yl)-4-(1,2,3,6-tetrahydropyridin-4-yl)isoindolin-1-one]
27 | 10 to 100 nM | Cc1cnc(Nc2cc(C)n(C)n2)nc1-c1c[nH]c2c(N3Cc4c(cccc4-c4ccc(OC(F)(F)F)cc4)C3=O)cccc12 [Example 395, 2-(3-(2-((1,5-dimethyl-1H-pyrazol-3-yl)amino)-5-methylpyrimidin-4-yl)-1H-indol-7-yl)-4-(4-(trifluoromethoxy)phenyl)isoindolin-1-one]
28 | < 10 nM | Cc1cnc(Nc2cc(C)n(C)n2)nc1-c1c[nH]c2c(N3Cc4c(cccc4-c4ccc(N)cc4)C3=O)cccc12 [Example 396, 4-(4-aminophenyl)-2-(3-(2-((1,5-dimethyl-1H-pyrazol-3-yl)amino)-5-methylpyrimidin-4-yl)-1H-indol-7-yl)isoindolin-1-one]
